In patent publication EP0514268A1, “Substituted amino acid azetidinyl pyridone derivatives, their preparation and use as medicines” (LABORATORIOS DEL DR. ESTEVE, S.A., priority 1991, dated 1992):
In brackets after ≈: the same amount, converted by molar mass.

Columns and labels:
Assay in all cases: Antimicrobial activity, agar dilution
Staph. aureus ATCC 25178 = assay type: cell-based, Staphylococcus aureus; details: Staphylococcus aureus, ATCC25178, 20 h, Agar Dextrose dilutions, 37°C, 20 heures, read-out: Activité pharmacologique antimicrobienne (concentrations)
Text: (§1) L'activité pharmacologique antimicrobienne de ces composés a été étudiée selon les références exposées ci-dessous.
(§2) Activité pharmacologique antimicrobienne : G.L. Daquet et Y.A. Chabbect, techniques en bactériologie, Vol. 3, Flammarion Médecine-Sciences, Paris 1972, et W.B. Hugo et A.D. Rusell, Pharmaceutical Microbiology, Blackwell Scientific Publications, London, 1977.
(§3) Milieu de culture et solvant : Agar d'antibiotiques n° 1 (Oxoid CM 327) Bouillon de triptone-soja (Oxoid CM 129) Solution Physiologique Ringer 1/4 (Oxoid BR 52) Agar Dextrose (BBL 11165)
(§4) Microorganismes : "Bacillus subtilis" ATCC 6633 "Citrobacter freundii" ATCC 112606 "Enterobacter aerogenes" ATCC 15038 "Enterobacter cloacae" ATCC 23355 "Bacillus cereus" ATCC 1178 "Escherichia coli" ATCC 10799 "Escherichia coli" ATCC 23559 "Klebsiella pneumoniae" ATCC 10031 "Proteus vulgaris" ATCC 8427 "Morg. morganii" ATCC 8019 "Pseudomonas aeruginosa" ATCC 9721 "Pseudomonas aeruginosa" ATCC 10145 "Salmonella typhimurium" ATCC 14028 "Salmonella typhimurium" ATCC 6539 "Serratia marcescens" ATCC 13880 "Shigella flexnerii" ATCC 12022 "Staphylococcusepidermis" ATCC 155-1 "Staphylococcus aureus" ATCC 25178 "Streptococcus faecalis" ATCC 10541.
(§5) Chacun des microorganismes est ensemencé par strie dans des tubes d'Agar d'antibiotiques n° 1, et mis en incubation pendant 20 heures à 37°C. Ensuite, on prend une anse de culture, on ensemence dans un bouillon de Triptone-soja et on incube pendant 20 heures à 37°C. On dilue à 1/4 la culture obtenue avec une solution physiologique Ringer, de façon à obtenir une suspension normalisée de […] pour chaque organisme.
(§6) A partir d'une solution de 100 µg/ml, chaque produit est dilué dans l'Agar Dextrose (préalablement fondu et maintenu à 50°C) par dilutions successives de façon à obtenir les concentrations suivantes : 64-32-16-8-4-2-1-0,5-0,25-0,125 µg de dérivé/ml du milieu.
(§7) Postérieurement, chaque concentration de chaque produit est répartie dans des boîtes de Petri de 10 cm de diamètre, à raison de 10 ml de milieu par boîte et autant de boîtes que de microorganismes à tester.
(§8) Une fois le milieu refroidi, les boîtes sont ensemencées avec les inoculations à raison de 0,4 ml d'inoculation par boîte. On les étend avec une anse de Driglasky et on recueille le surnageant. Les boîtes ensemencées sont incubées à 37°C pendant 20 heures.
(§9) Les résultats obtenus sont décrits dans les tableaux suivants. Les concentrations sont données en µg/ml.

[1] = test system: Serr. marcescens ATCC 13880; assay type: cell-based, Serratia marcescens; details: Serratia marcescens, ATCC13880, 20 h, Agar Dextrose dilutions, 37°C, 20 heures, read-out: Activité pharmacologique antimicrobienne (concentrations)
Text: as §1, §2, §3, §4, §5, §6, §7, §8, §9

[2] = test system: Ent. aerogenes ATCC 15038; assay type: cell-based, Enterobacter aerogenes; details: Klebsiella aerogenes, ATCC15038, 20 h, Agar Dextrose dilutions, 37°C, 20 heures, read-out: Activité pharmacologique antimicrobienne (concentrations)
Text: as §1, §2, §3, §4, §5, §6, §7, §8, §9

[3] = test system: Kleb. pneumoniae ATCC 10031; assay type: cell-based, Klebsiella pneumoniae; details: Klebsiella pneumoniae, ATCC10031, 20 h, Agar Dextrose dilutions, 37°C, 20 heures, read-out: Activité pharmacologique antimicrobienne (concentrations)
Text: as §1, §2, §3, §4, §5, §6, §7, §8, §9

Ent. cloacae ATCC 23355 = assay type: cell-based, Enterobacter cloacae; details: Enterobacter cloacae, ATCC23355, 20 h, Agar Dextrose dilutions, 37°C, 20 heures, read-out: Activité pharmacologique antimicrobienne (concentrations)
Text: as §1, §2, §3, §4, §5, §6, §7, §8, §9

[4] = test system: Strep. faecalis ATCC 10541; assay type: cell-based, Streptococcus faecalis; details: Enterococcus faecalis, ATCC10541, 20 h, Agar Dextrose dilutions, 37°C, 20 heures, read-out: Activité pharmacologique antimicrobienne (concentrations)
Text: as §1, §2, §3, §4, §5, §6, §7, §8, §9

[5] = test system: Citr. freundii ATCC 11606; assay type: cell-based, Citrobacter freundii; details: Citrobacter freundii, ATCC11606, 20 h, Agar Dextrose dilutions, 37°C, 20 heures, read-out: Activité pharmacologique antimicrobienne (concentrations)
Text: as §1, §2, §3, §4, §5, §6, §7, §8, §9

[6] = test system: Staph. epidermidis ATCC 155-1; assay type: cell-based; details: Staphylococcus epidermidis, ATCC155, 20 h, Agar Dextrose dilutions, 37°C, 20 heures, read-out: Activité pharmacologique antimicrobienne (concentrations)
Text: as §1, §2, §3, §4, §5, §6, §7, §8, §9

[7] = test system: Proteus vulgaris ATCC 8427; assay type: cell-based; details: Proteus vulgaris, ATCC8427, 20 h, Agar Dextrose dilutions, 37°C, 20 heures, read-out: Activité pharmacologique antimicrobienne (concentrations)
Text: as §1, §2, §3, §4, §5, §6, §7, §8, §9

[8] = test system: Bacillus subtilis ATCC 6633; assay type: cell-based; details: ATCC6633, 20 h, Agar Dextrose dilutions, 37°C, 20 heures, read-out: Activité pharmacologique antimicrobienne (concentrations)
Text: as §1, §2, §3, §4, §5, §6, §7, §8, §9

Morg. morganii ATCC 8019 = assay type: cell-based; details: Morganella morganii, ATCC8019, 20 h, Agar Dextrose dilutions, 37°C, 20 heures, read-out: Activité pharmacologique antimicrobienne (concentrations)
Text: as §1, §2, §3, §4, §5, §6, §7, §8, §9

[9] = test system: Escherichia coli ATCC 10799; assay type: cell-based; details: Escherichia coli, ATCC10799, 20 h, Agar Dextrose dilutions, 37°C, 20 heures, read-out: Activité pharmacologique antimicrobienne (concentrations)
Text: as §1, §2, §3, §4, §5, §6, §7, §8, §9

[10] = test system: Bacillus cereus ATCC 11778; assay type: cell-based; details: Bacillus cereus, ATCC11778, 20 h, Agar Dextrose dilutions, 37°C, 20 heures, read-out: Activité pharmacologique antimicrobienne (concentrations)
Text: as §1, §2, §3, §4, §5, §6, §7, §8, §9

[11] = test system: Shigella flexnerii ATCC 12022; assay type: cell-based; details: ATCC12022, 20 h, Agar Dextrose dilutions, 37°C, 20 heures, read-out: Activité pharmacologique antimicrobienne (concentrations)
Text: as §1, §2, §3, §4, §5, §6, §7, §8, §9

Ps. aeruginosa ATCC 9721 = assay type: cell-based; details: Pseudomonas aeruginosa, ATCC9721, 20 h, Agar Dextrose dilutions, 37°C, 20 heures, read-out: Activité pharmacologique antimicrobienne (concentrations)
Text: as §1, §2, §3, §4, §5, §6, §7, §8, §9

[12] = test system: Ps. aeruginosa ATCC 10145; assay type: cell-based; details: Pseudomonas aeruginosa, ATCC10145, 20 h, Agar Dextrose dilutions, 37°C, 20 heures, read-out: Activité pharmacologique antimicrobienne (concentrations)
Text: as §1, §2, §3, §4, §5, §6, §7, §8, §9

Sal. typhi ATCC 6539 = assay type: cell-based; details: Salmonella enterica, 20 h, read-out: Activité pharmacologique antimicrobienne (concentrations)
Text: as §1, §2, §3, §4, §5, §6, §7, §8, §9

[13] = test system: Escherichia coli ATCC 23559; assay type: cell-based; details: Escherichia coli, ATCC23559, 20 h, Agar Dextrose dilutions, 37°C, 20 heures, read-out: Activité pharmacologique antimicrobienne (concentrations)
Text: as §1, §2, §3, §4, §5, §6, §7, §8, §9

[14] = test system: Sal. typhimurium ATCC 14028; assay type: cell-based, Salmonella typhimurium; details: Salmonella enterica, 20 h, Agar Dextrose dilutions, 37°C, 20 heures, read-out: Activité pharmacologique antimicrobienne (concentrations)
Text: as §1, §2, §3, §4, §5, §6, §7, §8, §9

Q: What does the source list for `CCC[C@H](N)C(=O)NC1CN(c2nc3c(cc2F)c(=O)c(C(=O)O)cn3-c2ccc(F)cc2F)C1` [Exemple 4bN]?
A: MIC (Staph. aureus ATCC 25178): 4 µg/mL (≈ 8.17 µM); MIC [1]: 2 µg/mL (≈ 4.09 µM); MIC [2]: 1 µg/mL (≈ 2.04 µM); MIC [3]: 0.12 µg/mL (≈ 0.245 µM); MIC (Ent. cloacae ATCC 23355): 0.5 µg/mL (≈ 1.02 µM); MIC [4]: 4 µg/mL (≈ 8.17 µM); MIC [5]: 1 µg/mL (≈ 2.04 µM); MIC [6]: 2 µg/mL (≈ 4.09 µM); MIC [7]: 4 µg/mL (≈ 8.17 µM); MIC [8]: 0.25 µg/mL (≈ 0.511 µM); MIC (Morg. morganii ATCC 8019): 2 µg/mL (≈ 4.09 µM); MIC [9]: 2 µg/mL (≈ 4.09 µM); MIC [10]: 0.5 µg/mL (≈ 1.02 µM); MIC [11]: 0.12 µg/mL (≈ 0.245 µM); MIC (Ps. aeruginosa ATCC 9721): 4 µg/mL (≈ 8.17 µM); MIC [12]: 16 µg/mL (≈ 32.7 µM); MIC (Sal. typhi ATCC 6539): 1 µg/mL (≈ 2.04 µM); MIC [13]: 0.25 µg/mL (≈ 0.511 µM); MIC [14]: 1 µg/mL (≈ 2.04 µM)

Q: Which MIC (Staph. aureus ATCC 25178) does the source give for `C[C@@H](N)C(=O)NC1(C)CN(c2c(F)cc3c(=O)c(C(=O)O)cn(C4CC4)c3c2F)C1` [Exemple 4ca, chlorhydratede l'acide 7-(3-méthyl-3-D-Ala-amino-1-azétidinyl)-1-cyclopropyl-6,8-difluoro-1,4-dihydro-4-oxo-3-quinoléinecarboxylique] here?
A: 0.5 µg/mL

Q: What about the MIC [1] of the same compound?
A: 2 µg/mL

Q: What about the MIC [2] of the same compound?
A: 1 µg/mL

Q: And the MIC [3]?
A: 0.25 µg/mL

Q: What about the MIC (Ent. cloacae ATCC 23355) of the same compound?
A: 0.5 µg/mL

Q: What about the MIC [4] of the same compound?
A: 8 µg/mL

Q: And the MIC [5]?
A: 1 µg/mL

Q: And the MIC [6]?
A: 0.5 µg/mL

Q: What about the MIC [7] of the same compound?
A: 2 µg/mL

Q: And the MIC [8]?
A: 0.25 µg/mL

Q: And the MIC (Morg. morganii ATCC 8019)?
A: 1 µg/mL

Q: What about the MIC [9] of the same compound?
A: 1 µg/mL

Q: And the MIC [10]?
A: 1 µg/mL

Q: What about the MIC [11] of the same compound?
A: 0.25 µg/mL

Q: What about the MIC (Ps. aeruginosa ATCC 9721) of the same compound?
A: 4 µg/mL

Q: And the MIC [12]?
A: 16 µg/mL

Q: What about the MIC (Sal. typhi ATCC 6539) of the same compound?
A: 0.5 µg/mL

Q: What about the MIC [13] of the same compound?
A: 0.5 µg/mL

Q: What about the MIC [14] of the same compound?
A: 1 µg/mL
